Among the data in ChEMBL document CHEMBL1125280, “Direct prediction of dissociation constants (pKa's) of clonidine-like imidazolines, 2-substituted imidazoles, and 1-methyl-2-substituted-imidazoles from 3D structures using a comparative molecular field analysis (CoMFA) approach” (J Med Chem, 1991) are pKa values, retold here.

For orientation: pKa means the pH at which an ionisable group is half protonated. Read a low pKa as a stronger acid or weaker base.

The data set in a line: Ionization constant (pKa). The data set is classed as physicochemical.
Take `Cc1cc(Br)cc(C)c1N=C1NCCN1`: the pKa was 10.2. `Cc1cccc(C)c1N=C1NCCN1`: the pKa came to 10.5. With `c1ccc(NC2=NCCN2)cc1`, the pKa stood at 10.1. `O=[N+]([O-])c1cc(Cl)c(N=C2NCCN2)c(Cl)c1` displayed a pKa of 6.86. `Clc1cc(Cl)c(N=C2NCCN2)c(Cl)c1` had a pKa of 7.75. As for `Nc1ncc[nH]1`, the pKa was determined as 8.46.

Take `Brc1ncc[nH]1`: the pKa is 3.79. The result for `Cc1cc(C)c(N=C2NCCN2)c(C)c1` reads 10.8; that for `Cc1cc(Cl)c(N=C2NCCN2)c(Cl)c1`, 8.29. The result for `Clc1cccc(N=C2NCCN2)c1Cl` reads 8.55; that for `Fc1cccc(Cl)c1N=C1NCCN1`, 8.01; that for `Fc1ncc[nH]1`, 2.4.

The compound `Cc1ncc[nH]1` returned a pKa of 7.86. The result for `Brc1cccc(Br)c1N=C1NCCN1` reads 7.8; that for `CCc1cccc(CC)c1NC1=NCCN1`, 10.6; that for `Cn1ccnc1[N+](=O)[O-]`, -0.48. The result for `CCc1ncc[nH]1` reads 7.73; that for `Cc1cc(Cl)cc(Cl)c1N=C1NCCN1`, 9.03; that for `Fc1cccc(F)c1N=C1NCCN1`, 8.18. For the compound `Cn1ccnc1Br`, the pKa was 3.82. As for `Cc1ccccc1N=C1NCCN1`, the figure is 10.2; as for `CSc1ncc[nH]1`, 5.95. As for `Cn1ccnc1F`, the figure is 2.3; as for `Cc1cc(Cl)ccc1N=C1NCCN1`, 9.99; as for `Clc1cccc(Br)c1N=C1NCCN1`, 7.93.

The compound `Clc1ccccc1N=C1NCCN1` gave a pKa of 9.15. As for `Cc1cccc(Cl)c1N=C1NCCN1`, the figure is 9.4; as for `Cc1ccc(N=C2NCCN2)c(C)c1`, 10.6; as for `c1ccn(-c2ncc[nH]2)c1`, 5.36.

Compound `Clc1ccc(Cl)c(N=C2NCCN2)c1` gave a pKa of 8.5. As for `Cn1ccnc1N`, the figure is 8.54; as for `Cc1cc(Cl)cc(C)c1N=C1NCCN1`, 10.2; as for `Clc1ccc(N=C2NCCN2)c(Cl)c1`, 8.73. The compound `COc1cc(Cl)c(N=C2NCCN2)c(Cl)c1` registered a pKa of 8.57. Take `Clc1ncc[nH]1`: the pKa came out at 3.55.

Compound `Clc1cc(Br)cc(Cl)c1N=C1NCCN1` registered a pKa of 7.72. Consider `Brc1cc(Br)c(N=C2NCCN2)c(Br)c1`, for which the pKa came out at 7.46.

Take `Cc1cc(C)c(N=C2NCCN2)c(Cl)c1`: the pKa came out at 9.59. For `Cn1ccnc1` [1-METHYLIMIDAZOLE], the pKa is 7.12. Take `c1ccc(-c2ncc[nH]2)cc1` [2-PHENYLIMIDAZOLE]: the pKa came to 6.48. As for `O=[N+]([O-])c1ncc[nH]1` [AZOMYCIN], the figure is -0.81; as for `Cc1ccc(NC2=NCCN2)c(Cl)c1` [TOLONIDINE], 9.41.
